In US20120165403A1, “METHODS OF INHIBITING THE ACTIVITY OF HSP90 AND/OR ARYL HYDROCARBON RECEPTOR” (UNIVERSITY OF ROCHESTER, priority 2004, published 2012):

Experiments:
[1] = system: hsp90; test: Affinity chromatography on EGCG-conjugated Sepharose, Hepa cytosol hsp90; type: binding, mouse
[2] = system: AhR; type: biochemical, mouse
Procedure: Hepa cytosol (2.5 mg protein/ml) was incubated with a range of concentrations of EGCG (1-200 μM) or EGCG in the presence of 3 nM TCDD for 2 h at room temperature. Treated cytosols (21-25 μg) were mixed with nonspecific DNA (herring sperm), 0.08M NaCl, and 25,000-45,000 cpm of [^32P]-endlabeled oligonucleotide containing a single consensus DRE (Gasiewicz et al., Biochem. Pharmacol. 52:1787-1803 (1996), which is hereby incorporated by reference in its entirety). Samples were subjected to nondenaturing electrophoresis (4% acrylamide) and visualized using a Phosphoimager.

[3] = system: hsp90; test: Sucrose density gradient sedimentation of hsp90 in Hepa cytosol; type: biochemical, mouse; details: 2 h, 200 μM EGCG or 10 nM TCDD
Procedure: Competitive binding of EGCG was analyzed by velocity sedimentation on sucrose gradients in a vertical tube rotor (Tsui et al., Can. J. Physiol. Pharmacol 59:927-931 (1981); Jensen et al., Toxicol. Sci. 64:41-56 (2001), which are hereby incorporated by reference in their entirety). Hepa cytosol (100 μl of 2.5 mg/ml) or BP^rCl cytosol was incubated for two hours at room temperature with either 3 nM ^3H-TCDD, 0.5 nM ^3H-TCDD, or 5 nM ^3H-BNF, in the presence of DMSO, 150-fold excess TCDF, 1 μM 3M4NF, or EGCG. […] For competitive binding assays, fractions were assayed for radioactivity with ScintiVerse (Fisher Scientific, Fair Lawn, N.J.). […] For AhR and hsp90 density analysis, protein contained within an aliquot (200 of each fraction was separated by SDS-PAGE (7.5% acrylamide resolving gel) and transferred to PVDF membranes. Membranes were probed with antibodies recognizing AhR (Biomol) or hsp90 (Stressgen, Victoria, BC Canada). A crude estimate of the sedimentation coefficient for the EGCG shifted AhR complex was calculated by the method of Martin and Ames (Martin et al., J. Biol. Chem. 236:1372-1379 (1961), which is hereby incorporated by reference in its entirety) relative to the ^14C-BSA (4.4S) standard.

[4] = target: T1, AhR (Mus musculus, UniProt P30561); test: DNA binding of in vitro translated AhR and ARNT in RRL; type: biochemical
T1 construct: made in house; host or cells: TNT rabbit reticulocyte lysate
T1 sequence (P30561 10-805 limits assumed): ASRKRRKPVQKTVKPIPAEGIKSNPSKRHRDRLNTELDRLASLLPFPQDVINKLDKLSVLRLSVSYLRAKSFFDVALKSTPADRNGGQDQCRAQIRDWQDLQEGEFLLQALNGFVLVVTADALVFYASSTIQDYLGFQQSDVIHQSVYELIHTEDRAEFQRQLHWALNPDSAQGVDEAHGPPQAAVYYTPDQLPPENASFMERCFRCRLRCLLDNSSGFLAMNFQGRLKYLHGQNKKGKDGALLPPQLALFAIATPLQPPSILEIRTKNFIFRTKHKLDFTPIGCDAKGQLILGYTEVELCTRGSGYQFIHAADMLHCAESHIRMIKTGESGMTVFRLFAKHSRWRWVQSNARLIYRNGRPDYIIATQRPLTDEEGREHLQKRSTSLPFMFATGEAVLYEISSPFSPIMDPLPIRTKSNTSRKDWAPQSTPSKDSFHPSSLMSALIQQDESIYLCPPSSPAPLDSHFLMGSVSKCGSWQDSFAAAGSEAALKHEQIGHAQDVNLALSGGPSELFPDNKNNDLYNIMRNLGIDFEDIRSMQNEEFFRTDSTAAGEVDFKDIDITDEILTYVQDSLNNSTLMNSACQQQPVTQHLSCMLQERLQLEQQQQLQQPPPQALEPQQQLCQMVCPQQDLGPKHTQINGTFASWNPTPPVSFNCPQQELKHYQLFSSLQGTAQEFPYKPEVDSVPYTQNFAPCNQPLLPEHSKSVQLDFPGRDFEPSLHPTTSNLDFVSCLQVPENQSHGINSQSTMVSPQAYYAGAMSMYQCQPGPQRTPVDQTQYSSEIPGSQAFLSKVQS
Source text: The data provided above implicate a model where EGCG inhibits release of hsp90 from the AhR complex. This form of hsp90 appears to maintain its interaction with XAP2 (FIG. 4). However, from the above data, it remains to be determined whether 1) the hsp90-XAP2 complex remains bound to the AhR upon EGCG treatment, 2) EGCG prevents ARNT dimerization, 3) EGCG stabilizes the receptor in a different complex upon additional treatment with TCDD, and 4) if other proteins are present in this complex. Findings from the above investigations add some useful insight into the mechanism of action of EGCG. The mouse AhR used for these studies was in vitro transcribed in rabbit reticulocyte lysate (RRL) and immunoprecipitated using an antibody specific for amino acids 12-31. Although this antibody could precipitate the latent and TCDD-activated AhR complex from RRL, it was incapable of precipitating an EGCG-treated AhR. […] Furthermore, titration of Hepa cytosol into the RRL system restored the ability to immunoprecipitate ^35S-methionine-labeled in vitro transcribed AhR. Similar discrepancies between systems were observed utilizing DNA binding as an endpoint. […] This is in direct contrast to the lack of AhR transformation by EGCG observed in Hepa cytosol (FIG. 7). […] This EGCG-induced DNA binding complex could also be attenuated upon titration of Hepa cytosol into RRL. […]

For O=C(O[C@@H]1Cc2c(O)cc(O)cc2O[C@@H]1c1cc(O)c(O)c(O)c1)c1cc(O)c(O)c(O)c1 [EGCG, epigallocatechin gallate], the “binding of hsp90 to EGCG-Sepharose” value [1] was “also eluted from EGCG-Sepharose”, the “DRE binding, treatment alone” value ([2]; Hepa cytosol and extracts from treated whole cells, EGCG alone) was “DRE binding was not observed” and the “inhibition of TCDD-induced AhR-DRE binding” value ([2]; Hepa cytosol, 100 μM EGCG, 3 nM TCDD, 2 h) was ~100%. For the same molecule, the “effect on the TCDD-AhR-DRE shifted band” value ([2]; Hepa cytosol, EGCG 1-200 μM, 3 nM TCDD) was “concentration dependent decrease”, the “effect on the sedimentation pattern of hsp90” value [3] was “dramatically altered the sedimentation pattern of hsp90” and the “DNA binding of AhR and ARNT, treatment alone” value [4] was “formation of a strong DRE-AhR-ARNT shifted complex”.
